Activity calls are given as the source filed them. The rule behind the calls is not given here.
Columns and labels:
[1] = biological target: T1, Inhibitor of nuclear factor kappa-B kinase subunit beta (Homo sapiens, UniProt O14920)
T1 sequence (O14920 whole entry): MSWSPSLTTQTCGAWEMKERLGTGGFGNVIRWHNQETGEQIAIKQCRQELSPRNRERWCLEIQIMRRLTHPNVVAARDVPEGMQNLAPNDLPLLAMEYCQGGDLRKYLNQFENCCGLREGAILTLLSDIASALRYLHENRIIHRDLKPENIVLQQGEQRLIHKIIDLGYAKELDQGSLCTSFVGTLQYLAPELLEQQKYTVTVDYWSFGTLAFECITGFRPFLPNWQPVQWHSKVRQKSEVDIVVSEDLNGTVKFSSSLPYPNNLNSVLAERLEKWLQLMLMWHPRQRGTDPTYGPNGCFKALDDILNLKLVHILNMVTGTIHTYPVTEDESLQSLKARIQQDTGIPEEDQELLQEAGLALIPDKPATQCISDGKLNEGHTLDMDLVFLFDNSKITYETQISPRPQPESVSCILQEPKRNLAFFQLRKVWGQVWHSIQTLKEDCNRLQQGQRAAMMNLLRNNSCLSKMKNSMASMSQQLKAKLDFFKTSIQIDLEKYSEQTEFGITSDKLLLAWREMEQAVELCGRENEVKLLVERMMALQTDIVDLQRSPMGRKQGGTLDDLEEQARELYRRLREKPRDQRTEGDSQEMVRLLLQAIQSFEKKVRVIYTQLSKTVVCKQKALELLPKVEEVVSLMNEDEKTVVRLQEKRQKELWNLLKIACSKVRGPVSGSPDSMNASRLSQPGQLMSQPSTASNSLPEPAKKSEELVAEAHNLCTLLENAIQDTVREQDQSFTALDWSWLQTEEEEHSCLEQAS
Description: Inhibition of human recombinant GST-IKKbeta by TR-FRET assay

[2] = biological target: T2, Inhibitor of nuclear factor kappa-B kinase subunit epsilon (Homo sapiens, UniProt Q14164)
T2 sequence (Q14164 whole entry): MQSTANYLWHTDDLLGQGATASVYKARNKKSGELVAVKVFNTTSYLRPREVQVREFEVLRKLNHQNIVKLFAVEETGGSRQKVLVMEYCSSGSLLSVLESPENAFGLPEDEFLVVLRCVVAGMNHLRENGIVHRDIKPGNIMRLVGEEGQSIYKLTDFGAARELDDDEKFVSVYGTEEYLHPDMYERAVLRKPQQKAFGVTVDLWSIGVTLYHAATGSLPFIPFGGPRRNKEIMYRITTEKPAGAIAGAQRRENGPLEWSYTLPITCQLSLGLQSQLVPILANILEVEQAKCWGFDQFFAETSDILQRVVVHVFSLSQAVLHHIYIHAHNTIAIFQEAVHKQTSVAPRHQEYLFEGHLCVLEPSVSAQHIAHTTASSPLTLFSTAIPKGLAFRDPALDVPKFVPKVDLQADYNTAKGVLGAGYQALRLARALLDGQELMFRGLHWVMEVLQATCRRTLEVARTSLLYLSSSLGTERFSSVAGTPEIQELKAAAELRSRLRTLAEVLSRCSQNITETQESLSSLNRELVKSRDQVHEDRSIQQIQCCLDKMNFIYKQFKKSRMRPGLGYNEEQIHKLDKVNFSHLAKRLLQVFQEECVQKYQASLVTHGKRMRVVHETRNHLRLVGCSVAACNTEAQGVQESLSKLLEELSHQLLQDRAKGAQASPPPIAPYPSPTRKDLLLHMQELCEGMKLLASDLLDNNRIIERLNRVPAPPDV
Description: Inhibition of human recombinant FLAG-IKKepsilon by TR-FRET assay

[3] = tested on: PBMC; experiment: Inhibition of LPS-stimulated TNFalpha release in PBMC; format: functional, cell-based; conditions: Homo sapiens
[4] = Inhibition of LPS-stimulated IL6 release in PBMC; format: functional; conditions: Homo sapiens
[5] = tested on: Fibroblast; experiment: Inhibition of NF-kappaB translocation in TNF-alpha-induced human lung fibroblast cells; format: functional, cell-based

In the case of `COCCCNNS(=O)(=O)c1ccc(-c2cc(-c3ccccc3)cc(C(N)=O)c2N)cc1`, the IC50 [1] is reported as 0.251 µM and the IC50 [2] is reported as greater than 15.8 µM.

Compound `NC(=O)c1cc(-c2ccc(F)cc2)cc(-c2ccncc2)c1N` [GSK-620503A] has an IC50 [1] of 1.58 µM and an IC50 [2] greater than 15.8 µM.

`NC(=O)c1cc(-c2ccc(Cl)cc2)cc(-c2ccc(S(N)(=O)=O)cc2)c1O` gave an IC50 [1] of 1.58 µM and an IC50 [2] greater than 15.8 µM.

Work on `CS(=O)(=O)Nc1ccc(-c2cc(-c3ccc(Cl)cc3)cc(C(N)=O)c2N)cc1` yielded an IC50 [1] of 1.58 µM and an IC50 [2] greater than 15.8 µM.

Compound `NC(=O)c1cc(-c2ccc(F)cc2)cc(-c2ccc(S(N)(=O)=O)cc2)c1N` has an IC50 [1] of 0.2 µM and an IC50 [2] greater than 15.8 µM.

Work on `CN(C)CCCNNS(=O)(=O)c1ccc(-c2cc(-c3ccccc3)cc(C(N)=O)c2N)cc1` yielded an IC50 [1] of 0.316 µM and an IC50 [2] greater than 15.8 µM.

With `CNC(=O)c1cc(-c2ccc(F)cc2)cc(-c2ccc(S(=O)(=O)N3CCCC3)cc2)c1N` [GSK-635416A] the IC50 [1] was greater than 15.8 µM.

With `NC(=O)c1cc(-c2ccc(Cl)cc2)cc(-c2ccc(S(N)(=O)=O)cc2)c1N` the IC50 [3] was 0.794 µM, the IC50 [1] was 0.1 µM and the IC50 [2] was greater than 15.8 µM. The IC50 [4] was 2 µM and the Activity [5] was “Active”.

In the case of `COc1c(C(N)=O)cc(-c2ccccc2)cc1-c1ccncc1`, the IC50 [1] is reported as greater than 15.8 µM.

For `CS(=O)(=O)c1ccc(-c2cc(C(N)=O)c(N)c(-c3ccc(S(=O)(=O)N4CCCC4)cc3)c2)cc1`, the IC50 [1] was 0.398 µM.

Work on `NC(=O)c1cc(-c2ccccc2)cc(-c2ccc(S(N)(=O)=O)cc2)c1N` yielded an IC50 [1] of 0.251 µM and an IC50 [2] greater than 15.8 µM.

`NC(=O)c1cc(-c2ccncc2)cc(-c2ccccc2)c1N` [GSK-625137A] gave an IC50 [1] of 3.98 µM and an IC50 [2] of 3.98 µM.

`NC(=O)c1cc(-c2ccncc2)cc(-c2ccc(S(N)(=O)=O)cc2)c1N` gave an IC50 [1] of 0.251 µM and an IC50 [2] of 1.58 µM.

For `NC(=O)c1cc(-c2ccccc2)cc(-c2ccc(S(=O)(=O)NNC3CC3)cc2)c1N`, the IC50 [1] was 0.316 µM and the IC50 [2] was greater than 15.8 µM.

`COc1ccc(-c2ccncc2)cc1C(N)=O` [GSK-605714A] showed an IC50 [1] greater than 15.8 µM.

Compound `CNS(=O)(=O)c1ccc(-c2cc(-c3ccccc3)cc(C(N)=O)c2O)cc1` has an IC50 [1] of 1 µM and an IC50 [2] greater than 15.8 µM.

With `CNC(=O)c1cc(-c2ccc(F)cc2)cc(-c2ccc(S(C)(=O)=O)cc2)c1N` the IC50 [1] was greater than 15.8 µM.

In the case of `CN(C)S(=O)(=O)c1ccc(-c2cc(-c3ccncc3)cc(C(N)=O)c2O)cc1`, the IC50 [1] is reported as 7.94 µM and the IC50 [2] is reported as greater than 15.8 µM.

`NC(=O)c1cc(-c2ccc(F)cc2)ccc1N` gave an IC50 [1] greater than 15.8 µM and an IC50 [2] greater than 15.8 µM.

`NC(=O)c1cc(-c2ccccc2)cc(-c2cccc(S(N)(=O)=O)c2)c1N` showed an IC50 [1] of 7.94 µM and an IC50 [2] greater than 15.8 µM.

`NCCNNS(=O)(=O)c1ccc(-c2cc(-c3ccccc3)cc(C(N)=O)c2N)cc1` showed an IC50 [1] of 0.158 µM and an IC50 [2] greater than 15.8 µM.

With `CS(=O)(=O)Nc1ccc(-c2cc(-c3ccccc3)cc(C(N)=O)c2N)cc1` [GSK-586581A] the IC50 [1] was 1.58 µM and the IC50 [2] was greater than 15.8 µM.

With `NC(=O)c1cc(-c2ccc(F)cc2)cc(-c2ccc(S(=O)(=O)N3CCCC3)cc2)c1N` the IC50 [1] was 0.631 µM and the IC50 [2] was greater than 15.8 µM.

In the case of `NC(=O)c1cc(-c2ccccc2)ccc1N`, the IC50 [1] is reported as 15.8 µM and the IC50 [2] is reported as greater than 15.8 µM.

With `COc1c(C(N)=O)cc(-c2ccncc2)cc1-c1ccccc1` the IC50 [1] was greater than 15.8 µM.

Work on `CN(C)c1cccc(-c2cc(-c3ccccc3)cc(C(N)=O)c2N)c1` yielded an IC50 [1] greater than 15.8 µM and an IC50 [2] greater than 15.8 µM.

With `COc1cc2ncn(-c3cc(OCc4ccccc4S(C)(=O)=O)c(C#N)s3)c2cc1OC` [GSK-319347A] the IC50 [1] was greater than 15.8 µM.

Compound `NC(=O)c1cc(-c2ccccc2)cc(-c2ccc(S(=O)(=O)NNCCCN3CCOCC3)cc2)c1N` has an IC50 [1] of 0.316 µM and an IC50 [2] greater than 15.8 µM.

Compound `COc1c(C(N)=O)cc(-c2ccc(Cl)cc2)cc1-c1ccc(S(N)(=O)=O)cc1` [GSK-711701A] has an IC50 [1] greater than 15.8 µM.

Compound `NC(=O)c1cc(-c2ccccc2)cc(-c2ccc(CS(N)(=O)=O)cc2)c1N` has an IC50 [1] of 3.98 µM and an IC50 [2] greater than 15.8 µM.

With `NC(=O)c1cc(-c2ccccc2)cc(-c2ccc(S(=O)(=O)NNCCN3CCCC3)cc2)c1N` the IC50 [1] was 0.251 µM and the IC50 [2] was greater than 15.8 µM.

`CS(=O)(=O)c1ccc(-c2cc(C(N)=O)c(N)c(-c3ccc(S(N)(=O)=O)cc3)c2)cc1` showed an IC50 [1] of 0.158 µM.

Compound `CS(=O)(=O)Nc1cccc(-c2cc(-c3ccccc3)cc(C(N)=O)c2N)c1` has an IC50 [1] of 7.94 µM.
